Laboratory results from the NIST ThermoML archive (doi:10.1021/je900285w).

Assays:
[1] = Molar enthalpy of transition or fusion; details: Crystal; DSC
[2] = molar heat capacity at constant pressure; details: 101.33 kPa, Crystal

OC[C@@H](O)[C@@H](O)[C@H](O)[C@H](O)CO [D-mannitol]
Details	Molar enthalpy of transition or fusion [kcal/mol]
[1]	13.1

[2]
Details	molar heat capacity at constant pressure [J/K/mol]
80 K	70.46
80.42 K	71.86
84.12 K	75.82
85 K	76.73
87.06 K	79
90 K	82.37
90.04 K	82.17
93.09 K	85.24
95 K	87.51
96.04 K	88
99.05 K	90.89
100 K	92.23
102.11 K	93.72
105 K	96.64
105.11 K	96.44
108.05 K	98.92
110 K	100.8
111.06 K	101.4
114.14 K	104
115 K	104.8
117.16 K	106.5
120 K	108.7
120.11 K	109
123.13 K	111.5
125 K	112.5
126.22 K	113.8
129.26 K	116.1
130 K	116.2
132.27 K	118.9
135 K	120
135.24 K	120.9
138.18 K	123
140 K	123.8
141.2 K	125.4
144.28 K	127.8
145 K	127.7
147.31 K	129.9
150 K	131.6
150.31 K	132.2
153.28 K	134.4
155 K	135.6
156.23 K	136.7
159.25 K	138.8
160 K	139.7
162.37 K	141.7
165 K	143.9
165.49 K	143.2
168.58 K	146.4
170 K	148.2
171.61 K	149.2
174.59 K	150.8
175 K	152.5
177.6 K	152.9
180 K	156.9
180.59 K	156.6
183.61 K	159.2
185 K	161.4
186.66 K	162.1
189.7 K	165
190 K	166
192.75 K	168.2
195 K	170.6
195.81 K	170.5
198.93 K	173.9
200 K	175.2
202.13 K	176.6
